Tests used:
[1] = in ethanol; cited from earlier work
[2] = UV-Vis absorbance spectra in variable pH PBS buffer solutions; format: physicochemical; details: pH 7.4, 7.0, 6.8, 6.5
Protocol: Substantial differences were observed between pH 7.4 and pH 7.0 (B), pH 7.0 and 6.8 (C). A small additional peak was observed between pH 6.8 and 6.5 (D). This initial identification of the ability of compound (Ia) to modulate absorbance spectra was solely dependent upon variation in pH as changes in absorbance in various light conditions, various levels of 02, and various cell culture medium (with and without phenol red) (data not shown) were also tested.

[3] = Quantum yield and spectral properties in buffered solutions, by comparison with rhodamine; format: physicochemical; details: for ΦF (quantum yield): vs rhodamine
Protocol: The quantum yield of compound (Ia) under acidic (pH 6.0), neutral (7.0), and basic (pH 8.0) buffered solutions were calculated by comparison with rhodamine (ΦR=0.95 in ethanol), where ΦF is the quantum yield.

[4] = Absorption spectra in the presence of ions and reactive cellular products at pH 7.4; format: physicochemical; details: Na+, K+, Ca2+, Fe2+, Mg2+, Zn2+, Fe3+ chloride salts, H2O2, GSH, cysteine
Protocol: Since compound (Ia) was designed to spectrally alter based upon H^+ protonation, compound (Ia) was also evaluated in the presence of de-ionized water, phosphate buffer saline, and/or other ions which are present in living organisms (Na^+, K^+, Ca^2+, Fe^2+, Mg^2+, Zn^2+, Fe^3+ and Fe^2+ as chloride salts), and other highly reactive cellular products (H2O2, glutathione (GSH), cysteine) at pH 7.4. […] With the establishment that modulation of spectral absorption corresponded to H^+ without influence of other ions, compound (Ia) was further evaluated as a potential optoacoustic agent.

[5] = system: orthotopic pancreatic tumor; experiment: MSOT imaging of compound accumulation in mice with orthotopic pancreatic tumor; format: in vivo; details: SCID mice, iv tail vein, 100 nM in PBS pH 7.4, 100 μl; after 2 h
Protocol: Preliminary evaluation of compound (Ia) accumulation within mice was conducted. A matrigel plug containing surgicel mesh and fibroblast was injected subcutaneously to stimulate non-malignant fibrotic tissue two weeks prior to orthotopic tumor implantation in 3 SCID mice. Mice were anesthesized using 1.5% isoflurane and a gas mixture of 0.9 L medical air and 0.1 L 02 to detect tissue hypoxia. Because areas of tissue hypoxia will also have acidic extracellular pH, tissue hypoxia served as an additional acidic extracellular pH (pHe) control. One week post tumor implantation mice were imaged using MSOT to obtain a baseline prior to iv tail vein injection of compound (Ia) at (100 nM in PBS pH 7.4) in 100 μl total volume.

[6] = pH 6.0 (acidic) buffered solution
[7] = pH 7.0 (neutral) buffered solution
[8] = pH 8.0 (basic) buffered solution

Compound	ΦR (quantum yield of reference) [1]	pH dependence of absorbance spectra (UV-Vis) [2]	Absmax [3, 6] [nm]	Emmax [3, 6] [nm]	ΦF (quantum yield) [3, 6]	Absmax [3, 7] [nm]	Emmax [3, 7] [nm]	ΦF (quantum yield) [3, 7]	Absmax [3, 8] [nm]	Emmax [3, 8] [nm]	ΦF (quantum yield) [3, 8]	change of absorption spectra in the presence of other ions and reactive cellular products [4]	accumulation detected by MSOT [5]
rhodamine	0.95	–	–	–	–	–	–	–	–	–	–	–	–
C[N+]1=C(/C=C/C2=C3Oc4cc(O)ccc4C=C3CCC2)C(C)(C)c2c1ccc1c2ccc2cc(Cl)ccc21 [compound (Ia)]	–	absorbance spectra modulation corresponding with variable pH PBS buffer solutions	652	694	0.18	704	745	0.22	765	810	0.23	did not significantly alter	Pancreatic tumor specific accumulation
